Where a name gives a salt, the structure may show the parent alone.
Type: in vitro ADME, male albino rats
Description: Rat full thickness skins were used in the diffusion cell method of Michaels, AlChE Journal, 21 [5], 985-996, (1975). The rat skin was mounted in the diffusion cell in a vertical position between the upstream and the downstream compartments; the exposed area of the skin approximated 4.15 cm^2.
The skin was excised from the shaved abdominal site of male albino rats weighing 250~300 g, and washed with normal saline solution after the subcutaneous fat was carefully removed with scissors.
An MCP solution of known concentration was added to the upper compartment of the cell, which was exposed to the epithelial side of the skin and a normal saline solution was placed in the lower compartment.
The penetration rate was studied in a thermostated bath at 30° C. At appropriate intervals samples were withdrawn from the lower compartment and subsequently analyzed for MCP concentration by standard analytical methods. This regimen was used in Examples 1 to 10.
Unless otherwise indicated, in all of the examples, the active agent was MCP.HCl, the MCP.HCl flux is given in terms of ug/cm^2 /8hrs, 25 volume percent of the adjuvant with respect to the adjuvant plus solvent volume was used in combination with 2.5 weight percent of active agent based on the weight of the adjuvant plus solvent; otherwise, all percents are volume percents based on adjuvant, solvent or adjuvant plus solvent volume, depending on the system.
Compositions were typically prepared by merely mixing the adjuvant and solvent together, then mixing the MCP.HCl in the mixture and then, if used, mixing the diol therein. The order of mixing is not important.

Compound: CCN(CC)CCNC(=O)c1cc(Cl)c(N)cc1OC [MCP HCl, metoclopramide.HCl, reference compound]
- MCP HCl flux with increasing MCP HCl concentration: Flux increases linearly with increasing drug concentration

Compound: Hydroxy ethyl cellulose
- MCP.HCl Flux: 1296 ug/cm^2 /8 hrs

Compound: Hydroxy propyl cellulose
- MCP.HCl Flux: 843 ug/cm^2 /8 hrs
